Measurements published in article PMC9317670, “Temporal and Wash-Out Studies Identify Medicines for Malaria Venture Pathogen Box Compounds with Fast-Acting Activity against Both Trypanosoma cruzi and Trypanosoma brucei” (Microorganisms, 2022).
Like-named read-outs stand apart in the source and are kept apart here.

Columns and labels:
[1] = test system: T. cruzi Tulahuen strain parasites in 3T3 host cells; test: T. cruzi 48 h image-based assay; format: cell-based, Trypanosoma cruzi
HEPG2 cells = test: HEPG2 cytotoxicity assay; format: cell-based, human
T. cruzi [2] = test: T. cruzi temporal image-based assay, 24 h exposure; format: cell-based, Trypanosoma cruzi; settings: for IC50: read-out: IC50 24 h T. cruzi
T. cruzi [3] = test: T. cruzi compound wash off assay (48 h with compound, wash off, 72 h without); format: cell-based, Trypanosoma cruzi; settings: for Fold Change of IC50, wash off vs 48 h: IC50 from 48 h incubation to IC50 following wash off and further 72 h; for IC50: read-out: IC50 Wash Off
T. cruzi and T.b. brucei = test: Speed of action and cidality classification from temporal and wash off assays; format: cell-based, Trypanosoma cruzi, Trypanosoma brucei brucei; settings: for Speed of Action (FA/SA): TC = T. cruzi, TBB = T.b. brucei; for Speed of Action (Table 5): prioritised compounds, Fast/Slow
[4] = test system: T.b. brucei bloodstream 427 strain parasites; test: T.b. brucei 72 h REDOX-based (resazurin) viability assay; format: cell-based, Trypanosoma brucei brucei; settings: for Emax % (T.b. brucei) / IC50 / Emax: 72 h
HEK293 cells = test: HEK293 cytotoxicity assay; format: cell-based, human; settings: HEK293, 72 h, NA = not active, highest dose 79 µM unless given
T.b. brucei [5] = test: T.b. brucei temporal viability (time-kill) assay, 24 h, PrestoBlue; format: cell-based, Trypanosoma brucei brucei; settings: for IC50: read-out: IC50 24 h T.b. brucei
Protocol: Time-kill assays was undertaken as previously described, using the REDOX reagent PrestoBlue® [24]. […] Control compounds were added at the same concentrations at outlined for the resazurin-based assays.

T.b. brucei [6] = test: T.b. brucei temporal viability (time-kill) assay, 48 h, PrestoBlue; format: cell-based, Trypanosoma brucei brucei; settings: for IC50: read-out: IC50 48 h T.b. brucei
T.b. rhodesiense STIB900 = T.b. rhodesiense STIB900 assay, 72 h; format: cell-based; settings: Trypanosoma brucei; STIB900, 72 h; unit inferred; read-out: IC50 T. bR (T.b. rhodesiense)
T.b. gambiense STIB930 = T.b. gambiense STIB930 assay, 72 h; format: cell-based; settings: Trypanosoma brucei, unit inferred, read-out: IC50 T. Bg STIB930 (T.b. gambiense)
[7] = target: T. cruzi recombinant CYP51 (TcCYP51) (Trypanosoma cruzi, UniProt Q7Z1V1); test: biochemical; settings: criterion: IC50 within a log difference to posaconazole
Protocol: The inhibitory properties of compounds against T. cruzi recombinant CYP51 (TcCYP51) was determined using an in vitro assay as previously described [33, 41]. Compounds which inhibited T. cruzi in an image-based assay were tested against TcCYP51 in log concentrations (100, 33, 10, 3.3, 1.0, 0.33, 0.1 and 0 µM), with one replicate per dose, as previously described [41]. The control compound posaconazole was incubated at the same concentrations as the test compounds, over two replicates.
Of the fast-acting compounds, if there was more than one compound with activity against T. cruzi, one representative compound from each chemical class was selected. […] Slow-acting compounds were also tested for activity against TcCYP51. The criteria defining a compound with TcCYP51 activity required that the IC50 value was within a log difference to posaconazole, as previously reported [33].

[8] = dosed orally in mice; ref [51]; cited from earlier work
[9] = Trypanosoma cruzi, TULAHUEN, 48 h; read-out: Emax % (T. cruzi) (converted)
[10] = Trypanosoma cruzi, TULAHUEN, 48 h; read-out: IC50 (T. cruzi)
[11] = selectivity index in relation to 3T3 host cells; highest dose 3T3 73 µM
[12] = Trypanosoma cruzi, NA = not active at given concentration
[13] = Trypanosoma cruzi, T. cruzi, 48 h incubation, wash off, further 72 h
[14] = selectivity index in relation to HEK293 cells
[15] = selectivity index in relation to HEPG2 cells
[16] = 48 h; read-out: IC50 (T. cruzi)
[17] = HEPG2, 72 h, NA = not active, highest dose 79 µM unless given, read-out: IC50 (HEP) (converted)
[18] = T. cruzi, 48 h incubation, wash off, further 72 h
[19] = Trypanosoma brucei, read-out: Emax 24 h T.b. brucei (converted)
[20] = Trypanosoma brucei, read-out: Emax 48 h T.b. brucei (converted)

T. cruzi recombinant CYP51 (TcCYP51), sequence (Q7Z1V1 whole entry): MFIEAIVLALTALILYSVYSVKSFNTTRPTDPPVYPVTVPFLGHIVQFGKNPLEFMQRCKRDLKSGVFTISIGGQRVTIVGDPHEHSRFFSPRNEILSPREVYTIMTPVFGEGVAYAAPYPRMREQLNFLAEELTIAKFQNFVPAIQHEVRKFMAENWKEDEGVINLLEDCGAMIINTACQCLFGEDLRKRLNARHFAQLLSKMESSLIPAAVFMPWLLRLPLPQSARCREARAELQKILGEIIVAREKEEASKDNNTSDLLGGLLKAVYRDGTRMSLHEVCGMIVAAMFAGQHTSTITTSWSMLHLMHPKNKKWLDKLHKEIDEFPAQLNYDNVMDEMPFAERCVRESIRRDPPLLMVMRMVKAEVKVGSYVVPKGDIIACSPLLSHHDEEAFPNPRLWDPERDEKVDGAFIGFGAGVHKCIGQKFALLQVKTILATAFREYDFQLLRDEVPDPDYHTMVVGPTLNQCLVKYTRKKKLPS

| SMILES | Emax [1, 9] [%] | IC50 [1, 10] [nM] | SI (T. cruzi) 3T3 [1, 11] | IC50 (T. cruzi [2]; [12]) [nM] | Fold Change of IC50, wash off vs 48 h (T. cruzi [3]; T. cruzi) [fold] | IC50 (T. cruzi [3]; [13]) [nM] | Speed of Action (FA/SA) (T. cruzi and T.b. brucei) | SI (T.b. brucei) HEK [4, 14] | SI (T.b. brucei) (HEP) [4, 15] | SI (T. cruzi) HEK [1, 14] | SI (T. cruzi) (HEP) [1, 15] | Emax ([4]; Trypanosoma brucei) [%] | IC50 ([4]; Trypanosoma brucei) [nM] | IC50 (T.b. brucei [5]; Trypanosoma brucei) [nM] | IC50 (T.b. brucei [6]; Trypanosoma brucei) [nM] | IC50 (T.b. rhodesiense STIB900) [nM] | IC50 (T.b. gambiense STIB930) [nM] | Speed of Action (Table 5) (T. cruzi and T.b. brucei) | Emax (T.b. brucei [5]; [19]) [%] | Emax (T.b. brucei [6]; [20]) [%] | further results |
| --- | --- | --- | --- | --- | --- | --- | --- | --- | --- | --- | --- | --- | --- | --- | --- | --- | --- | --- | --- | --- | --- |
| O=C(Cn1ccnc1[N+](=O)[O-])NCc1ccccc1 [Benznidazole, reference compound] | 100 | 3400 ± 710 | >37 | 4700 ± 1400 | 0.29 | 1200 ± 110 | FA (Fast-acting (FA) = IC50 value can be determined following 24 h incubation, <10-fold difference in the IC50 value from 24 to 72 h) | – | – | – | – | – | – | – | – | – | – | – | – | – | IC50 (HEP) (HEPG2 cells; HEPG2, 72 h, NA = not active, highest dose 79 µM unless given): NT (NA at 127 µM) |
| CN(C)c1cc(NC(=O)Nc2ccccc2)c2ccccc2n1 [MMV 006901] | – | – | >60 ^4 | – | – | – | – | 3.7 | 1.8 | 15 | 7.1 | – | – | – | – | – | – | – | – | – | Emax % (T.b. brucei) [4]: 99%; IC50 [4]: 4900 ± 8.5 nM; Emax % (T. cruzi) ([1]; 48 h): 100%; IC50 [1, 16]: 1200 ± 110 nM; IC50 (HEK293 cells): 18000 ± 810 nM; IC50 (HEPG2 cells; [17]): 9800 nM |
| Nc1nc2ccc(-c3cncc(Oc4ccc(F)cc4)c3)cc2[nH]1 [MMV 687248] | – | – | >49 | – | 1.3 | – | FA (Fast-acting (FA) = IC50 value can be determined following 24 h incubation, <10-fold difference in the IC50 value from 24 to 72 h) | – | – | 53 | 13 | 99 | 510 ± 45 | 930 ± 47 | 200 ± 32 | 1200 ± 540 | 240 ± 22 | Fast | – | – | SI (T.b. brucei) (HEP) [4]: 38; SI (T.b. brucei) HEK [4]: > 155; Emax ([1]; Trypanosoma cruzi, TULAHUEN, 48 h, read-out: Emax % (T. cruzi)): 99%; IC50 ([1]; Trypanosoma cruzi, TULAHUEN, 48 h, read-out: IC50 (T. cruzi)): 1500 ± 130 nM; IC50 (HEPG2 cells; Homo sapiens, HepG2, 72 h, read-out: IC50 (HEP)): 19600 nM; IC50 (T. cruzi [2]; Trypanosoma cruzi): 4100 ± 1300 nM; IC50 (T. cruzi [3]; Trypanosoma cruzi): 2000 ± 39 nM; Emax (T.b. brucei [5]; Trypanosoma brucei, read-out: Emax 24 h T.b. brucei): 87%; Emax (T.b. brucei [6]; Trypanosoma brucei, read-out: Emax 48 h T.b. brucei): 99% |
| CCCCN(CCCC)c1c(C#N)cc(S(=O)(=O)Nc2ccccc2)cc1C#N [MMV 688467] | – | – | >32 | – | 0.91 | – | SA (TC) | > 254 | 74 | > 34 | 10 | – | – | – | – | – | – | – | – | – | Emax % (T.b. brucei) [4]: 99%; IC50 [4]: 310 ± 6.9 nM; Emax % (T. cruzi) ([1]; 48 h): 98%; Emax % (T. cruzi) ([1]; 48 h; listed as MMV688467): > 95%; IC50 [1, 16]: 2300 ± 460 nM; IC50 (HEPG2 cells; [17]): 23000 nM; Emax 24 h T. cruzi (T. cruzi [2]): 75%; IC50 (T. cruzi [2]; NA = not active at given concentration): 4400 ± 730 nM; Emax Wash Off (T. cruzi [3]; [18]): 100%; IC50 (T. cruzi [3]; [18]): 2100 ± 440 nM; Emax 24 h T.b. brucei (T.b. brucei [5]): 88%; IC50 (T.b. brucei [5]): 1200 ± 350 nM; Emax 48 h T.b. brucei (T.b. brucei [6]): 100%; IC50 (T.b. brucei [6]): 460 ± 18 nM |
| CCc1ccccc1-n1c(C)cn2c3c(=O)n(C(C(=O)OC)C(C)C)c(=O)n(C)c3nc12 (stereo not drawn) [MMV 688550] | 100 | 530 ± 110 | >138 | 900 ± 170 | 0.58 | 310 ± 67 | FA (Fast-acting (FA) = IC50 value can be determined following 24 h incubation, <10-fold difference in the IC50 value from 24 to 72 h) | >3160 (>3160) | >3160 (>3160) | >149 (>149) | >149 (>149) | 99 | 25 ± 0.83 | 22 ± 14 | 21 ± 0.53 | 80 ± 1.4 | < 1 | Fast | 100 | 99 | Emax (T. cruzi [2]; Trypanosoma cruzi): 80%; Inhibition of TcCYP51 (in words) [7]: did not display activity |
| O=C(NCCc1ccn(-c2ccccc2)n1)C1CCCCC1 [MMV 688795] | 100 | 580 ± 50.3 | >126 | 1300 ± 120 | 0.74 | 380 ± 56 | FA (Fast-acting (FA) = IC50 value can be determined following 24 h incubation, <10-fold difference in the IC50 value from 24 to 72 h) | >608 (>608) | >608 (>608) | >136 (>136) | >136 (>136) | 99 | 130 ± 52 | 290 ± 4.7 | 106 ± 20 | 79 ± 0.7 | 630 ± 1.4 | Fast | 99 | 99 | Emax (T. cruzi [2]; Trypanosoma cruzi): 89% |
| O=C(NCc1nnc2n1CCCCC2)c1ccc(-c2ccc(F)cc2)o1 [MMV 688796] | 100 | 1200 ± 400 | >61 | 2400 ± 1300 | 1.1 | 1100 ± 480 | FA (Fast-acting (FA) = IC50 value can be determined following 24 h incubation, <10-fold difference in the IC50 value from 24 to 72 h) | >658 (>658) | >658 (>658) | >66 (>66) | >66 (>66) | 99 | 120 ± 23 | 240 ± 53 | 97 ± 4.8 | 46 ± 31 | 160 ± 11 | Fast | 82 | 100 | Emax (T. cruzi [2]; Trypanosoma cruzi): 91%; Emax (T. cruzi [3]; [13]): 98%; Half-life [8]: 3.9 h |
| N=C(N)c1ccc(OCCCCCOc2ccc(C(=N)N)cc2)cc1 [Pentamidine, reference compound] | – | – | – | – | – | – | FA (Fast-acting (FA) = IC50 value can be determined following 24 h incubation, <10-fold difference in the IC50 value from 24 to 72 h) | >216 | – | – | – | 100 | 3.1 ± 0.1 | 12 ± 2.1 | 0.2 ± 0.0021 | – | 3 ± 2 | – | 99 | 100 | IC50 HEK (HEK293 cells): NA at 0.67 µM (NT) |
| COc1ccc(C[C@H](N)C(=O)N[C@H]2[C@@H](O)[C@H](n3cnc4c(N(C)C)ncnc43)O[C@@H]2CO)cc1 [Puromycin, reference compound] | 100 | 5600 ± 11 | 1.2 | 3500 ± 440 | 0.50 | 2800 ± 130 | FA (Fast-acting (FA) = IC50 value can be determined following 24 h incubation, <10-fold difference in the IC50 value from 24 to 72 h) | 12 | 4.0 | 0.13 | 0.044 | 100 | 63 ± 0.41 | 96 ± 13 | 97 ± 0.42 | – | – | – | 100 | 100 | IC50 (HEK293 cells; Homo sapiens): 730 ± 270 nM; IC50 (HEPG2 cells; Homo sapiens, HEPG2, 72 h, NA = not active, highest dose 79 µM unless given, read-out: IC50 (HEP) (converted)): 250 nM |
